Legend:
Hep-2 = experiment: MTT cytotoxicity, Hep-2; format: cell-based; conditions: Homo sapiens, read-out: IC50 (µM) Cancer Cell Lines Hep-2
Text: (§1) Cells and Materials. For the experiments, we used tumor cell cultures M-HeLa clone 11 (epithelioid carcinoma of the cervix, subline HeLa, clone M-HeLa), HuTu 80, human duodenal adenocarcinoma, Hep-2, human epithelial cells, SH-SY5Y, human neuroblast-like cells, A549, human lung adenocarcinoma, PA-1, human ovarian teratocarcinoma and MCF-7, a human mammary ductal adenocarcinoma from the collection of the Institute of Cytology, Russian Academy of Sciences (St. Petersburg, Russia); human liver cells (Chang liver) were from the collection and the Research Institute of Virology of the Russian Academy of Medical Sciences (Moscow, Russia).
(§2) MTT Assay. The cytotoxic effect on cells was determined using the colorimetric method of cell proliferation—the MTT test. NADP-H-dependent cellular oxidoreductase enzymes can, under certain conditions, reflect the number of viable cells. These enzymes reduce the tetrazolium dye (MTT) 3-(4,5-dimethylthiazol-2-yl)-2,5-diphenyl-tetrazolium bromide to insoluble blue-violet formazan, which crystallizes inside the cell. The amount of formed formazan is proportional to the number of cells with active metabolism. […] Optical density was recorded at 540 nm on an Invitrologic microplate reader (Novosibirsk, Russia). […]
(§3) Statistical analysis. The IC50 values were calculated using the MLA–Quest Graph™ IC50 Calculator (AAT Bioquest, Inc., Sunnyvale, CA, USA), 14 February 2022. […]

PA-1 cells = experiment: Cell glycolysis, Seahorse XF Glycolysis Stress Test (ECAR); format: cell-based, human; conditions: 100 μM
Text: To investigate whether the cytotoxicity of 5a and 6a is related to their effects on metabolism, we quantified their inhibition of glycolysis in human ovarian teratocarcinoma PA-1 cells using Seahorse technology, which allows the rapid assessment of glycolytic metabolism in cells using a proton efflux rate assay (ECAR). It is well known that glucose in cells is converted to pyruvate and then either to lactate in the cytoplasm or CO2 and water in the mitochondria. As glucose is converted to lactate, protons are released into the extracellular environment to maintain intracellular pH homeostasis. This extracellular acidification is measured in real time and provides insight into the rate of glycolytic proton efflux. PA-1 cells are used for the study of glycolysis since a pronounced deregulation of cellular energy is observed in the case of ovarian cancer, mediating the growth, invasion and migration of tumor cells.
Measuring ECAR under these conditions provides the parameters presented in Figure 9c,d: the level of glycolysis and glycolytic capacity.
Determination of cell glycolysis. Cell glycolysis was measured with Seahorse XF Glycolysis Stress Test Kit and Seahorse Bioscience XF96 Extracellular Flux Analyzer (Agilent Technology, Boston, MA, USA). […] ECAR levels were examined and analyzed using Seahorse Bioscience XF96 Extracellular Flux Analyzer. […]

MCF-7 = experiment: MTT cytotoxicity, MCF-7; format: cell-based; conditions: Homo sapiens, MCF7, read-out: IC50 (µM) Cancer Cell Lines MCF-7
Text: as §1, §2, §3

HuTu 80 = experiment: MTT cytotoxicity, HuTu 80; format: cell-based, human
Text: as §1
MTT Assay. The cytotoxic effect on cells was determined using the colorimetric method of cell proliferation—the MTT test. NADP-H-dependent cellular oxidoreductase enzymes can, under certain conditions, reflect the number of viable cells. These enzymes reduce the tetrazolium dye (MTT) 3-(4,5-dimethylthiazol-2-yl)-2,5-diphenyl-tetrazolium bromide to insoluble blue-violet formazan, which crystallizes inside the cell. The amount of formed formazan is proportional to the number of cells with active metabolism. Cells were seeded on a 96-well Nunc plate at a concentration of 5 × 10^3 cells per well in a volume of 100 μL of medium and cultured in a CO2 incubator at 37 °C until a monolayer was formed. After the nutrient medium was removed, 100 µL of the test drug solutions at the given dilutions were added to the wells, which were prepared directly in the nutrient medium with the addition of 5% DMSO to improve solubility. After 48 h of incubation of the cells with the tested compounds, the nutrient medium was removed from the plates and 100 µL of the nutrient medium without serum with MTT at a concentration of 0.5 mg/mL was added and incubated for 4 h at 37 °C. Formazan crystals were added 100 µL of DMSO to each well. Optical density was recorded at 540 nm on an Invitrologic microplate reader (Novosibirsk, Russia). The experiments for all compounds were repeated three times.
Statistical analysis. The IC50 values were calculated using the MLA–Quest Graph™ IC50 Calculator (AAT Bioquest, Inc., Sunnyvale, CA, USA), 14 February 2022. Statistical analysis was performed with the Mann–Whitney test (p < 0.05). Tabular and graphical data contain averages and standard error.

HuTu 80 cells [1] = experiment: Mitochondrial membrane potential, JC-10 flow cytometry; format: cell-based, human; conditions: 24 h treatment, IC50/2 and IC50
Protocol: In this study, we used the fluorescent dye JC-10 from the Mitochondria Membrane Potential Kit (Sigma, St. Louis, MO, USA). Changes in mitochondrial membrane potential under the influence of lead compounds 5a and 6a were determined at IC50/2 and IC50 concentrations on the HuTu 80 cell line. When JC-10 accumulates in the mitochondrial matrix, it forms fluorescent J-aggregates. Their red fluorescence is characteristic for normal cells with high mitochondrial membrane potential. The reduction in mitochondrial membrane potential in apoptotic cells allows JC-10 to escape out of the mitochondria in a monomeric form which has green fluorescence. The mitochondrial membrane potential of HuTu 80 cells is decreased after 24 h treatment with the lead compounds 5a and 6a. The change becomes more pronounced as the concentrations of the tested compounds approach IC50 (Figure 7).
Cell Culture. HuTu 80 cells at 1 × 10^6 cells/well in a final volume of 2 mL were seeded into six-well plates. After 48 h of incubation, various concentrations of lead compounds were added to wells.
Mitochondrial Membrane Potential. […] After the cells were rinsed three times and suspended in PBS, the JC-10 fluorescence was observed using flow cytometry (Guava easy Cyte, MERCK, Rahway, NJ, USA).

HuTu 80 cells [2] = experiment: Intracellular ROS, CellROX Deep Red flow cytometry; format: cell-based, human; conditions: IC50/2 and IC50
Protocol: The apoptosis via the mitochondrial pathway also increases the production of reactive oxygen species (ROS). As mitochondria itself becomes the target of ROS, an increase in their production disrupts mitochondrial functions and culminates in irreversible cell damage. Therefore, the effect of lead compounds 6a and 5a at IC50/2 and IC50 concentrations on ROS production in HuTu 80 cells was evaluated using flow cytometry. […] Such an effect is not observed for intact cells in the presence of both compounds, indicating an increase in ROS production in cancer tissues.
Detection of Intracellular ROS. HuTU 80 cells were incubated with lead compounds at concentrations of IC50/2 and IC50 for 48 h. ROS generation was investigated using flow cytometry assay and CellROX® Deep Red flow cytometry kit. For this purpose, […] cells were harvested at 2000 rpm for 5 min and then washed twice with ice-cold PBS, followed by resuspension in 0.1 mL of medium without FBS, to which was added 0.2 μL of CellROX® Deep Red, which was followed by incubation at 37 °C for 30 min. The cells were washed three times and suspended in PBS. After that, the production of ROS in the cells was immediately monitored using flow cytometer (Guava easy Cyte, MERCK, Rahway, NJ, USA).

Compound: O=C(C[P+](c1ccccc1)(c1ccccc1)c1ccccc1)NCCC1c2c(ccc3ccccc23)Oc2ccc3ccccc3c21 [Compound 6a]
- IC50 (Hep-2): 2.34 ± 0.01 µM
- glycolysis (ECAR) at maximum concentration (in words) (PA-1 cells): completely blocking glycolysis
- IC50 (MCF-7): 7.12 ± 0.76 µM
- IC50 (HuTu 80; Homo sapiens, HuTu80, 48 h, MTT, 48 h incubation, read-out: IC50 (µM) Cancer Cell Lines HuTu 80): 1.7 ± 0.1 µM
- times more effective / more cytotoxic than the reference drug sorafenib (HuTu 80; HuTu 80): three times more effective
- mitochondrial membrane potential (in words) (HuTu 80 cells [1]): decreased
- ROS production, CellROX Deep Red fluorescence intensity (in words) (HuTu 80 cells [2]): significant reliable increase

Reference: article PMC11203978, “Discovery of Di(het)arylmethane and Dibenzoxanthene Derivatives as Potential Anticancer Agents” (International Journal of Molecular Sciences, 2024)
